Read-outs that look alike come from different tables or passages of the source.

This note sets out measurements from paper PMC8327781 (Journal of medicinal chemistry, 2021).

The target in the test is JAK2 KD (Homo sapiens, UniProt O60674). Nature of the test: Recombinant JAK2 KD protein levels in transfected Expi293F cells. The test is classed as cell-based.
Sequence of JAK2 KD (O60674 840-1132): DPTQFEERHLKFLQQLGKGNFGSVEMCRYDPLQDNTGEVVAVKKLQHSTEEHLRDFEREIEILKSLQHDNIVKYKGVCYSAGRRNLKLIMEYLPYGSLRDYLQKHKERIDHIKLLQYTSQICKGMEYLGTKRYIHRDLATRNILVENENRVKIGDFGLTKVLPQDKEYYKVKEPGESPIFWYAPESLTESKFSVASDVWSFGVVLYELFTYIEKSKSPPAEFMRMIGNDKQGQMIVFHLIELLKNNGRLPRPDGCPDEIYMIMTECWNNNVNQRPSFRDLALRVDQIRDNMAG

`CCCC(=O)O` [butyric acid]: the “JAK2 KD expression increase over that of ruxolitinib alone” value is given as “four-fold”. As to `CCCC(CCC)C(=O)O` [valproic acid], the “JAK2 KD expression increase over that of ruxolitinib alone” value (HDAC inhibitor added alongside 1 μM ruxolitinib, 2 mM and 4 mM) was “four-fold”.
